# Patent US20070112068A1, “Nitrile compound and its use in pest control” (priority 2003, published 2007)
# Assays:
# Assay type in all cases: in vivo
# [1] = tested on: Haemaphysalis longicornis; assay: Experimental Example 7: treated polypropylene film pouch, Haemaphysalis longicornis; conditions: 0.22 ml of 0.25% (w/v) methanol solution on film; 10 young mites; after 48 hours
# Protocol: A 0.25% (w/v) solution of the present compound (31) in methanol was prepared. Onto one side of a polypropylene film having 5.7 cm (height)×16.5 cm (width), 0.22 ml of the solution was added dropwise uniformly (except for 5 mm width from the edges of the film) and then air-dried. Thereafter, the film was folded in half widthwise in a way that the side containing the present compound became the inner face of the folded film. Then, the two longer sides (5 mm width each) of the folded film were heat-sealed to obtain a pouch. 10 young mites of Haemaphysalis longicornis were put into the polypropylene film pouch. The opening part of the polypropylene film pouch was closed with a clip. After 48 hours, the number of surviving Haemaphysalis longicornis was examined and the death rate of the pest was calculated.
# Blattella germanica [2] = assay: Experimental Example 13: direct oil spray in CSMA chamber, Blattella germanica; conditions: 1.5 ml of 0.025% (w/v) oil sprayed directly; after 3 days
# Protocol: 7.5 mg of the present compound (31) was dissolved in 30 mL of a mixture of 90 parts by weight of Isopar M (isoparaffin, the registered trade name of Exxon Chemical) and 10 parts by weight of dichloromethane to prepare a 0.025% (w/v) oil. A plastic container (diameter: 9.5 cm, height: 4 cm, bottom part of 16 mesh wire) containing 10 imagoes (5 males and 5 females) of Blattella germanica was placed on the bottom of a CSMA chamber (width: 46 cm, depth: 46 cm, height: 70 cm).
# 1.5 ml of the oil was directly sprayed on test cockroaches from the upper side of the CSMA chamber. After 30 seconds from spraying, the container containing cockroaches was removed. All cockroaches were transferred to another clean plastic container (200 mL) and left together with feed and water at 25° C. After 3 days, the number of surviving Blattella germanica was examined and the death rate of the pest was calculated.
# Blattella germanica [3] = assay: Experimental Example 18: smoking preparation in Peet-Grady chamber, Blattella germanica; conditions: smoking preparation (Formulation Example 16); 2 hours exposure, after 72 hours
# Protocol: Plastic cups (diameter: 12.5 cm, height: 8 cm) containing 10 (5 males and 5 females) imagoes of Blattella germanica were placed at the two corners of a Peet-Grady chamber with 1.8 m (width)×1.8 m (depth)×1.8 m (height). A plastic container containing water was placed at the center of the bottom of the Peet-Grady chamber and a smoking preparation of the present compound (31) prepared according to Formulation Example 16 was placed in this plastic cup. After 2 hours, Blattella germanica was collected, transferred to a 200 mL plastic cup, and left together with feed and water at 25° C. After 72 hours, the number of surviving Blattella germanica was examined and the death rate of the pest was calculated.
# Blattella germanica [4] = assay: Experimental Example 21: poison bait, Blattella germanica; conditions: poison bait: 3 ml of 0.5% by weight acetone solution per 3 g animal feed; 1 g bait; after 7 days
# Protocol: 3 ml of a 0.5% by weight solution of the present compound (31) in acetone is added dropwise to 3 g of animal powdery feed, mixed thoroughly, and then air-dried to obtain a poison bait. 1 g of this poison bait is placed on an aluminum dish and the dish is placed in a plastic cup (860 mL) containing 20 imagoes (10 males and 10 females) of Blattella germanica. The pest is given water and kept at 25° C. After 7 days, the number of surviving Blattella germanica is examined and the activity of the poison bait is obtained.
# Culex pipiens pallens = assay: Experimental Example 26: liquid-absorbing wick-type heat-vaporizing product, Culex pipiens pallens; conditions: liquid-absorbing wick-type product (Formulation Example 19); 20 minutes exposure, after 24 hours
# From the text: A part of a liquid-absorbing wick-type heat-vaporizing pesticidal product of the present compound (31) prepared according to Formulation Example 19 is set on a heater for a liquid absorbing wick-type heat-vaporizing pesticide, and then placed on the center of the floor of a chamber having 70 cm (width)×70 cm (depth)×70 cm (height). After the part of a liquid-absorbing wick-type heat-vaporizing pesticidal product is initiated to be heated with the heater, about 20 female imagoes of Culex pipiens pallens are released in the chamber. After 20 minutes, all test pests are collected, placed in a plastic cup together with absorbent cotton impregnated with 5% sugar water, and left at 25° C.
smiles,measurement,setting,value
N#CC(C#N)(CCC(F)(F)F)CC(F)(F)C(F)(F)C(F)(F)C(F)F [(31)],death rate of the pest,[1],100%
same,death rate of the pest,Blattella germanica [2],100%
same,death rate of the pest,Blattella germanica [3],100%
same,activity of the poison bait,Blattella germanica [4],sufficient pesticidal effect
same,pesticidal effect,Culex pipiens pallens,pesticidal effect on Culex pipiens pallens is confirmed
